Laboratory results as given in patent US12319679B2, “Morpholinyl, piperazinyl, oxazepanyl and diazepanyl O-glycoprotein-2-acetamido-2-deoxy-3-d-glucopyranosidase inhibitors” (BIOGEN MA INC., priority 2018, dated 2025).

Molecular target: T1, Recombinant full length human OGA enzyme (Homo sapiens, UniProt O60502)
T1 construct: Recombinant full length human OGA enzyme was purchased from Origene; purchased Origene
T1 sequence (O60502 1-916): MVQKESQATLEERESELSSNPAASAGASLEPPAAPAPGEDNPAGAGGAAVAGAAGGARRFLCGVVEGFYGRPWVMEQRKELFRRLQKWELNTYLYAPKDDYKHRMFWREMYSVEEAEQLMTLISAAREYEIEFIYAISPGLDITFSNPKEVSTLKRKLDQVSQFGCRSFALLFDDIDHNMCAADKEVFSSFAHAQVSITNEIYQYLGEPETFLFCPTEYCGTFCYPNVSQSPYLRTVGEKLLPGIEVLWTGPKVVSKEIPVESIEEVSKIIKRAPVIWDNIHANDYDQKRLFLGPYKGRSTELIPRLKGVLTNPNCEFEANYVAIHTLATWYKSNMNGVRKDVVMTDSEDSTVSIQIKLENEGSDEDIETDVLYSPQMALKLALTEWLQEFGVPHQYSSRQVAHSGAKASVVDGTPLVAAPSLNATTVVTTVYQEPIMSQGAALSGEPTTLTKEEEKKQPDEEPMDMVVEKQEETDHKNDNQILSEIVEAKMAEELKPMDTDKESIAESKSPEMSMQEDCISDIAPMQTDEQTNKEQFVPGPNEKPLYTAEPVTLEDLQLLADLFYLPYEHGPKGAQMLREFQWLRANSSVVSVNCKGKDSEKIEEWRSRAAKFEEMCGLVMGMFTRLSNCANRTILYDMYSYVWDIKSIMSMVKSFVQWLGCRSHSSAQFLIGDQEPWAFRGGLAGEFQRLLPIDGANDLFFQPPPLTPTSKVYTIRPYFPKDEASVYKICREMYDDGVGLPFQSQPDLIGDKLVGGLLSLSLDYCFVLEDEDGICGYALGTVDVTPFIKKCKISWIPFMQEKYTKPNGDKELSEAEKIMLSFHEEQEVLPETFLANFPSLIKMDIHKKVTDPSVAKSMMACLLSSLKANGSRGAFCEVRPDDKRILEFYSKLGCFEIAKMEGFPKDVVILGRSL
Assay: OGA Enzyme Inhibition Biochemical Assay
Details: 1 nM OGA, 100 μM 4-MUGlcNAc (Km), pH 6.4, 90 minutes at room temperature; 10-point dose-response starting from 20 μM
Protocol: OGA Enzyme Inhibition Biochemical Assay
Recombinant full length human OGA enzyme was purchased from Origene. 4-MUGlCNAc substrate was purchased from Sigma. All other reagents were purchased from Sigma or Fisher. Assay buffer consists of the McIlvaine buffer system, pH 6.4 (0.2M Na2HPO4 mixed with 0.1M citric acid) and 0.01% BSA. Reactions consist of 1 nM OGA, 100 μM 4-MUGlcNAc (Km), and compound in a final volume of 10 μl. Reactions were incubated for 90 minutes at room temperature and quenched with 40 μl of 3M glycine, pH 10 and read on a Perkin Elmer Envision plate reader (Ex: 355 nm/Em: 460 nm). Compounds were tested with a 10-point dose-response starting from 20 μM with a 4-fold dilution. Data was fit using GraphPad Prism using a 4-paramter fit with variable slope.

SMILES	IC50 [nM]
CC(=O)Nc1ncc(CN2CCO[C@@H](Cc3ncc(F)cn3)C2)s1 [Example 1-2, (S)—N-(5-((2-((5-fluoropyrimidin-2-yl)methyl)morpholino)methyl)thiazol-2-yl)acetamide]	4400
CC(=O)Nc1ncc(CN2CCO[C@H](Cc3ccnc(C)c3)C2)s1 [Example 1-20, (R)—N-(5-((2-((2-methylpyridin-4-yl)methyl)morpholino)methyl)thiazol-2-yl)acetamide]	84
CC(=O)Nc1ncc(CN2CCO[C@H](Cc3ccnc(OCC(F)(F)F)c3)C2)s1 [Example 1-10]	160
COc1nccc(C[C@@H]2CN(Cc3cnc(NC(C)=O)s3)CCO2)n1 [Example 1-7, (R)—N-(5-((2-((2-methoxypyrimidin-4-yl)methyl)morpholino)methyl)thiazol-2-yl)acetamide]	110
CC(=O)Nc1ncc(CN2CCOC(C(C)c3ncc(F)cn3)C2)s1 (single isomer, unassigned) [Example 1-25 Peak 4]	1300
COc1cc(CC2CN(Cc3cnc(NC(C)=O)s3)CCCO2)ccn1 (single isomer, unassigned) [Example 1-41 Peak 1]	39
COc1cc(CC2CN(Cc3cnc(NC(C)=O)s3)CCCO2)ccn1 (racemic) [Example 1-40, N-(5-((2-((2-methoxypyridin-4-yl)methyl)-1,4-oxazepan-4-yl)methyl)thiazol-2-yl)acetamide]	99
CC(=O)Nc1ncc(CN2CCCOC(Cc3ncc(F)cn3)C2)s1 (racemic) [Example 1-38, N-(5-((2-((5-fluoropyrimidin-2-yl)methyl)-1,4-oxazepan-4-yl)methyl)thiazol-2-yl)acetamide]	45
CC(=O)Nc1ncc(CN2C[C@@H](Cc3ncc(F)cn3)O[C@@H](C)C2)s1 (racemic) [Example 1-34, N-(5-(((cis)-2-((5-fluoropyrimidin-2-yl)methyl)-6-methylmorpholino)methyl)thiazol-2-yl)acetamide]	680
CC(=O)Nc1ncc(CN2CCNC(Cc3ncc(F)cn3)C2)s1 (single isomer, unassigned) [Example 2-20 Peak 2]	> 20000
COc1cc(CC2CN(Cc3cnc(NC(C)=O)s3)CCN2C)ccn1 (single isomer, unassigned) [Example 4-12 Peak 1]	950
CC(=O)Nc1ncc(CN2CCCOC(Cc3ncc(F)cn3)C2)s1 (single isomer, unassigned) [Example 1-39 Peak 1]	20
CC(=O)Nc1ncc(CN2CCOCC(Cc3cc(C)nc(C)c3)C2)s1 (single isomer, unassigned) [Example 1-43 Peak 2]	38
COc1cc(C[C@@H]2CN(Cc3cnc(NC(C)=O)s3)CCO2)ccc1F [Example 1-6, (R)—N-(5-((2-(4-fluoro-3-methoxybenzyl)morpholino)methyl)thiazol-2-yl)acetamide]	100
CC(=O)Nc1ncc(CN2CCNC(Cc3ccnc(C)c3)C2)s1 (single isomer, unassigned) [Example 4-8 Peak 2]	490
CC(=O)Nc1ncc(CN2CCO[C@H](Cc3cc(C)nc(C)c3)C2)s1 [Example 1-21, (R)—N-(5-((2-((2,6-dimethylpyridin-4-yl)methyl)morpholino)methyl)thiazol-2-yl)acetamide]	38
CC(=O)Nc1ncc(CN2C[C@@H](Cc3ncc(F)cn3)OC[C@H]2C)s1 [Example 1-27]	6600
COc1cc(CC2CN(Cc3cnc(NC(C)=O)s3)CCN2)ccc1F (single isomer, unassigned) [Example 4-6 Peak 1]	11000
CC(=O)Nc1ncc(CN2CCOC(C(C)c3ncc(F)cn3)C2)s1 (single isomer, unassigned) [Example 1-25 Peak 2]	73
CC(=O)Nc1nc(F)c(CN2C[C@@H](Cc3ccc(C)nc3)OC[C@@H]2C)s1 [Example 1-49, N-(4-fluoro-5-(((2R,5S)-5-methyl-2-((6-methylpyridin-3 yl)methyl)morpholino)methyl)thiazol-2-yl)acetamide]	170

Results, then the molecule that gave them:

IC50 [nM]	SMILES
17	CC(=O)Nc1ncc(CN2C[C@@H](Cc3ncc(F)cn3)N(C)C[C@@H]2C)s1 [Example 2-6, N-(5-(((2S,5R)-5-((5-fluoropyrimidin-2-yl)methyl)-2,4-dimethylpiperazin-1-yl)methyl)thiazol-2-yl)acetamide]
1600	CC(=O)Nc1ncc(CN2CCN(C)[C@H](Cc3cc(C)nc(C)c3)C2)s1 [Example 4-3, (R)—N-(5-((3-((2,6-dimethylpyridin-4-yl)methyl)-4-methylpiperazin-1-yl)methyl)thiazol-2-yl)acetamide]
7500	CC(=O)Nc1ncc(CN2C[C@@H](Cc3ccnc(C)c3)N(C(C)=O)C[C@@H]2C)s1 [Example 2-4, N-(5-(((2S,5R)-4-acetyl-2-methyl-5-((2-methylpyridin-4-yl)methyl)piperazin-1-yl)methyl)thiazol-2-yl)acetamide]
> 20000	COc1cc(CC2CN(Cc3cnc(NC(C)=O)s3)CCCN2C(C)=O)ccn1 (stereo not drawn) [Example 2-26, N-(5-((4-acetyl-3-((2-methoxypyridin-4-yl)methyl)-1,4-diazepan-1-yl)methyl)thiazol-2-yl)acetamide]
7.4	CC(=O)Nc1ncc(CN2C[C@@H](Cc3ccnc(C)c3)NC[C@@H]2C)s1 [Example 2-1, N-(5-(((2S,5R)-2-methyl-5-((2-methylpyridin-4-yl)methyl)piperazin-1-yl)methyl)thiazol-2-yl)acetamide]
4.9	COc1cc(C[C@@H]2CN(Cc3cnc(NC(C)=O)s3)[C@@H](C)CN2C)ccn1 [Example 2-18]
19	CC(=O)Nc1ncc(CN2C[C@@H](Cc3ncc(F)cn3)NC[C@@H]2C)s1 [Example 2-5]
180	CCN1C[C@H](C)N(Cc2cnc(NC(C)=O)s2)C[C@H]1Cc1ccc(C)nc1 [Example 2-12, N-(5-(((2S,5R)-4-ethyl-2-methyl-5-((6-methylpyridin-3-yl)methyl)piperazin-1-yl)methyl)thiazol-2-yl)acetamide]
34	CC(=O)Nc1ncc(CN2C[C@@H](Cc3cc(C)nc(C)c3)N(C)C[C@@H]2C)s1 [Example 2-10]
45	CC(=O)Nc1ncc(CN2C[C@@H](Cc3ccc(C)nc3)N(C)C[C@@H]2C)s1 [Example 2-11, N-(5-(((2S,5R)-2,4-dimethyl-5-((6-methylpyridin-3-yl)methyl)piperazin-1-yl)methyl)thiazol-2-yl)acetamide]
5600	CC(=O)Nc1ncc(CN2CCCNC(Cc3ncc(F)cn3)C2)s1 (stereo not drawn) [Example 2-23, N-(5-((3-((5-fluoropyrimidin-2-yl)methyl)-1,4-diazepan-1-yl)methyl)thiazol-2-yl)acetamide]
9600	CC(=O)Nc1ncc(CN2C[C@@H](Cc3ncc(F)cn3)N(C(C)=O)C[C@@H]2C)s1 [Example 2-7, N-(5-(((2S,5R)-4-acetyl-5-((5-fluoropyrimidin-2-yl)methyl)-2-methylpiperazin-1-yl)methyl)thiazol-2-yl)acetamide]
45	CC(=O)Nc1ncc(CN2C[C@@H](Cc3ccc(C)nc3)NC[C@@H]2C)s1 [Example 2-9, N-(5-(((2S,5R)-2-methyl-5-((6-methylpyridin-3-yl)methyl)piperazin-1-yl)methyl)thiazol-2-yl)acetamide]
